One assay addresses T1, B1R receptor of the rat (Rattus norvegicus, UniProt P97583).
T1 construct: host or cells: CHO K1 cells (Chinese hamster ovary), stably transfected
T1 sequence (P97583 1-337): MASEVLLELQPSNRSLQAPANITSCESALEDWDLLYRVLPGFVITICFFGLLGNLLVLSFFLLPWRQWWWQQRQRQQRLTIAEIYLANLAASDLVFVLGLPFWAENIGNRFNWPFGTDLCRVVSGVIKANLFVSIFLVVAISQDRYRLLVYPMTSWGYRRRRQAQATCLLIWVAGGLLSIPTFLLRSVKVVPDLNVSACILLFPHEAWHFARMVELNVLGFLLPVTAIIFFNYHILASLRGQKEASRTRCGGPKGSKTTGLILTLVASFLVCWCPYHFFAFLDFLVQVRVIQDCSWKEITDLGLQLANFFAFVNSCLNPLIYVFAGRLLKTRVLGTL
The assay is described as follows: Functional study on the bradykinin receptor 1 (B1R), FLIPR Ca2+ assay, rB1R cells. In kind it is cell-based. The conditions noted are these: CHO-K1, test substance 10 μM, agonist Des-Arg9-bradykinin 100 nM, % inhibition compared with the maximum achievable inhibition, read-out: B1R Antagonism, rat [10 μM] % Inhibition. The method, boiled down: (§1)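 Cells were dye-loaded 60 min at 37 °C, equilibrated 20 min at room temperature, then given 10 μM compound. Ten minutes later the species-matched agonist was added (0.5 nM Lys-Des-Arg9-bradykinin, human; 100 nM Des-Arg9-bradykinin, rat) and Ca2+ influx suppression expressed as % of maximum inhibition.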

The target of a further assay is T2, human B1R receptor (Homo sapiens, UniProt P46663).
T2 construct: host or cells: CHO K1 cells (Chinese hamster ovary), stably transfected
T2 sequence (P46663 1-353): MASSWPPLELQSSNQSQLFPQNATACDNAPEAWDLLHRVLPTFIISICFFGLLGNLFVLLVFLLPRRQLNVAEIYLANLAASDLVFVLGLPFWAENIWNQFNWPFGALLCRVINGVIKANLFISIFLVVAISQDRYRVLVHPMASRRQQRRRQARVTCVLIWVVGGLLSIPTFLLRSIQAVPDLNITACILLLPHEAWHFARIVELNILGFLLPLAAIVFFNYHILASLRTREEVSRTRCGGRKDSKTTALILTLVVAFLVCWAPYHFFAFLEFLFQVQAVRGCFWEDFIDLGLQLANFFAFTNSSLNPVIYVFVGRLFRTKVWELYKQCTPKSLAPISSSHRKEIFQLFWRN
The assay is described as follows: Functional study on the bradykinin receptor 1 (B1R), FLIPR Ca2+ assay, hB1R cells. Format: cell-based. The conditions noted are these: CHO-K1, test substance 10 μM, agonist Lys-Des-Arg9-bradykinin 0.5 nM, % inhibition compared with the maximum achievable inhibition, read-out: B1R Antagonism, human [10 μM] % Inhibition. The method, boiled down:
as §1

Counter-ions that a name gives are not always drawn.

For orientation: inhibition means the drop in the measured response relative to a control, in per cent.

`COc1cc(C)c(S(=O)(=O)N2Cc3ccccc3CC2COCC(=O)N2CCN(CCCN(C)C)CC2)c(C)c1C` (centres unmarked) [Example 560, 1-(4-(3-(dimethylamino)propyl)piperazin-1-yl)-2-((2-(4-methoxy-2,3,6-trimethylphenylsulfonyl)-1,2,3,4-tetrahydroisoquinolin-3-yl)methoxy)ethanone]: the values for the inhibition at 10 µM at B1R receptor of the rat and at human B1R receptor were 99.3% and 102%, respectively.

`Cc1ccc2ccccc2c1S(=O)(=O)N1CCCCC1COCC(=O)N1CCN(C2CCN(C)CC2)CC1` (centres unmarked) [Example 157, 2-((1-(2-methylnaphthalen-1-ylsulfonyl)piperidin-2-yl)methoxy)-1-(4-(1-methylpiperidin-4-yl)piperazin-1-yl)ethanone dihydrochloride]: the figures for the inhibition at 10 µM at B1R receptor of the rat and at human B1R receptor were 100% and 98.2%, respectively.

In the case of `COc1cc(C)c(S(=O)(=O)N2CCCC2COCC(=O)NCc2ccc(CN3CCCCC3)cc2)c(C)c1` (centres unmarked) [Example 1, 2-[1-(4-methoxy-2,6-dimethyl-phenylsulfonyl)-pyrrolidin-2-ylmethoxy]-N-(4-piperidin-1-ylmethyl-benzyl)-acetamide], the inhibition at 10 µM at B1R receptor of the rat amounted to 107%; on human B1R receptor it was 105%.

Consider `COc1ccc(S(=O)(=O)N2CCCCC2COCC(=O)N2CCN(Cc3cccc(C)c3)CC2)cc1` (centres unmarked) [Example 219, 2-((1-(4-methoxyphenylsulfonyl)piperidin-2-yl)methoxy)-1-(4-(3-methylbenzyl)piperazin-1-yl)ethanone], for which the results for the inhibition at 10 µM on B1R receptor of the rat and on human B1R receptor were 96.2% and 5.04%, respectively.

With `COc1cc(C)c(S(=O)(=O)N2CCCCC2COCC(=O)Nc2cc(C)nc3ccccc23)c(C)c1` (centres unmarked) [Example 244, 2-((1-(4-methoxy-2,6-dimethylphenylsulfonyl)piperidin-2-yl)methoxy)-N-(2-methylquinolin-4-yl)acetamide], the inhibition at 10 µM at B1R receptor of the rat amounted to 97.3%; on human B1R receptor, 70.2%.

With `CN1CCC(N2CCN(C(=O)COCC3CCCCN3S(=O)(=O)c3cccc(C(F)(F)F)c3)CC2)CC1` (centres unmarked) [Example 22, 1-[4-(1-methyl-piperidin-4-yl)-piperazin-1-yl]-2-[1-(3-trifluoromethyl-phenylsulfonyl)-piperidin-2-ylmethoxy]-ethanone], the inhibition at 10 µM at B1R receptor of the rat is 21.4%; on human B1R receptor it was 92.6%.

In the case of `COc1cc(C)c(S(=O)(=O)N2CCCCC2COCC(=O)N(C)CCN(C)C)c(C)c1` (centres unmarked) [Example 379, N-(2-(dimethylamino)ethyl)-2-((1-(4-methoxy-2,6-dimethylphenylsulfonyl)piperidin-2-yl)methoxy)-N-methylacetamide], the inhibition at 10 µM amounted to 102% at B1R receptor of the rat and 67.9% at human B1R receptor.

In the case of `COc1cc(C)c(S(=O)(=O)N2CCCC2COCC(=O)N2CCN(c3cccc(C(F)(F)F)c3)CC2)c(C)c1` (centres unmarked) [Example 465, 2-((1-(4-methoxy-2,6-dimethylphenylsulfonyl)pyrrolidin-2-yl)methoxy)-1-(4-(3-(trifluoromethyl)phenyl)piperazin-1-yl)ethanone], the inhibition at 10 µM at B1R receptor of the rat is 98.8%; at human B1R receptor, 102%.

On to `CN1CCN(c2ccc(CNC(=O)COCC3CCCN3S(=O)(=O)c3c(Cl)cc(Cl)cc3Cl)cc2)CC1` (centres unmarked) [Example 29, N-[4-(4-methyl-piperazin-1-yl)-benzyl]-2-[1-(2,4,6-trichloro-phenylsulfonyl)-pyrrolidin-2-ylmethoxy]-acetamide], for which the inhibition at 10 µM was 110% on B1R receptor of the rat and 84.4% on human B1R receptor.

In the case of `Cc1cc(C)c(S(=O)(=O)N2Cc3ccccc3CC2COCC(=O)N2CCCN(Cc3ccccc3)CC2)c(C)c1` (centres unmarked) [Example 67, 1-(4-benzyl-[1,4]diazepan-1-yl)-2-[2-(2,4,6-trimethyl-phenylsulfonyl)-1,2,3,4-tetrahydro-isoquinolin-3-ylmethoxy]-ethanone], the inhibition at 10 µM at B1R receptor of the rat came out at 80.5%; at human B1R receptor it was 55%.

`COc1cccc(N2CCN(C(=O)COCC3CCCN3S(=O)(=O)c3c(C)cc(OC)cc3C)CC2)c1` (centres unmarked) [Example 306, 2-((1-(4-methoxy-2,6-dimethylphenylsulfonyl)pyrrolidin-2-yl)methoxy)-1-(4-(3-methoxyphenyl)piperazin-1-yl)ethanone]: the inhibition at 10 µM worked out at 99.2% on B1R receptor of the rat and 104% at human B1R receptor.

For the compound `COc1cc(C)c(S(=O)(=O)N2CCCC2COCC(=O)N2CCN(c3ccccn3)CC2)c(C)c1` (centres unmarked) [Example 305, 2-((1-(4-methoxy-2,6-dimethylphenylsulfonyl)pyrrolidin-2-yl)methoxy)-1-(4-(pyridin-2-yl)piperazin-1-yl)ethanone], the inhibition at 10 µM at B1R receptor of the rat was 95.5%; at human B1R receptor, 76.4%.

As for `Cc1cc(C)c(S(=O)(=O)N2CCCCC2COCC(=O)N2CCCC2CN2CCCCC2)c(C)c1` (centres unmarked) [Example 27, 1-(2-piperidin-1-ylmethyl-pyrrolidin-1-yl)-2-[1-(2,4,6-trimethyl-phenylsulfonyl)-piperidin-2-ylmethoxy]-ethanone], the inhibition at 10 µM is 97.7% at B1R receptor of the rat and 85.4% on human B1R receptor.

As for `O=C(COCC1CCCCN1S(=O)(=O)c1c(Cl)cccc1Cl)N1CCN(Cc2ccccc2F)CC1` (centres unmarked) [Example 454, 2-((1-(2,6-dichlorophenylsulfonyl)piperidin-2-yl)methoxy)-1-(4-(2-fluorobenzyl)piperazin-1-yl)ethanone], the inhibition at 10 µM was 100% at B1R receptor of the rat and 102% at human B1R receptor.

With `COc1cc(C)c(S(=O)(=O)N2CCCCC2COCC(=O)N(CCN(C)C)Cc2ccccc2)c(C)c1` (centres unmarked) [Example 361, N-benzyl-N-(2-(dimethylamino)ethyl)-2-((1-(4-methoxy-2,6-dimethylphenylsulfonyl)piperidin-2-yl)methoxy)acetamide], the inhibition at 10 µM is 101% on B1R receptor of the rat and 93.4% on human B1R receptor.

For the compound `CN1CCC(N2CCN(C(=O)COCC3CCCN3S(=O)(=O)c3c(Cl)cc(C(F)(F)F)cc3Cl)CC2)CC1` (centres unmarked) [Example 570, 2-((1-(2,6-dichloro-4-(trifluoromethyl)phenylsulfonyl)pyrrolidin-2-yl)methoxy)-1-(4-(1-methylpiperidin-4-yl)piperazin-1-yl)ethanone], the inhibition at 10 µM worked out at 98.1% on B1R receptor of the rat and 97.7% on human B1R receptor.

`O=C(COCC1CCCN1S(=O)(=O)c1c(Cl)cccc1Cl)N1CCN(Cc2ccc(Cl)cc2)CC1` (centres unmarked) [Example 359, 1-(4-(4-chlorobenzyl)piperazin-1-yl)-2-((1-(2,6-dichlorophenylsulfonyl)pyrrolidin-2-yl)methoxy)ethanone]: the results for the inhibition at 10 µM on B1R receptor of the rat and on human B1R receptor were 103% and 98.6%, respectively.

Turning to `COc1cc(C)c(S(=O)(=O)N2CCCCC2COCC(=O)NC(CN2CCCC2)c2ccccc2)c(C)c1` (centres unmarked) [Example 262, 2-((1-(4-methoxy-2,6-dimethylphenylsulfonyl)piperidin-2-yl)methoxy)-N-(1-phenyl-2-(pyrrolidin-1-yl)ethyl)acetamide], the inhibition at 10 µM was determined as 99.7% on B1R receptor of the rat and 81.8% on human B1R receptor.

As for `COc1cc(C)c(S(=O)(=O)N2CCCCC2COCC(=O)N2CCC(c3nc(-c4ccncc4)no3)CC2)c(C)c1` (centres unmarked) [Example 103, 2-((1-(4-methoxy-2,6-dimethylphenylsulfonyl)piperidin-2-yl)methoxy)-1-(4-(3-(pyridin-4-yl)-1,2,4-oxadiazol-5-yl)piperidin-1-yl)ethanone], the inhibition at 10 µM was 100% at B1R receptor of the rat and 105% on human B1R receptor.

`CN1CCN(C(=O)COCC2CCCCN2S(=O)(=O)c2c(Cl)cc(Cl)cc2Cl)CC1` (centres unmarked) [Example 393, 1-(4-methylpiperazin-1-yl)-2-((1-(2,4,6-trichlorophenylsulfonyl)piperidin-2-yl)methoxy)ethanone]: the inhibition at 10 µM amounted to 101% on B1R receptor of the rat and 104% at human B1R receptor.

Regarding `CN(C)Cc1ccc(CNC(=O)COCC2CCCCN2S(=O)(=O)c2c(Cl)cc(Cl)cc2Cl)cc1` (centres unmarked) [Example 37, N-(4-dimethylaminomethyl-benzyl)-2-[1-(2,4,6-trichloro-phenylsulfonyl)-piperidin-2-ylmethoxy]-acetamide], the inhibition at 10 µM at B1R receptor of the rat worked out at 103%; on human B1R receptor, 78.2%.

In the case of `COc1ccc(S(=O)(=O)N2c3ccccc3CC2COCC(=O)N2CCN(CCn3c(C)ccc3C)CC2)cc1` (centres unmarked) [Example 548, 1-(4-(2-(2,5-dimethyl-1H-pyrrol-1-yl)ethyl)piperazin-1-yl)-2-((1-(4-methoxyphenylsulfonyl)indolin-2-yl)methoxy)ethanone], the inhibition at 10 µM at B1R receptor of the rat amounted to 95.4%; at human B1R receptor it was 24.7%.

The record behind these values is US8435978B2, “Substituted sulfonamide compounds” (Gruenenthal GmbH, priority 2006, dated 2013).
